Source: PMC5920109, “Identification, Expression, and Regulation of an Omega Class Glutathione S-transferase in Rhopalosiphum padi (L.) (Hemiptera: Aphididae) Under Insecticide Stress” (Frontiers in Physiology, 2018)

Target: T1, RpGSTO1 (Rhopalosiphum padi, UniProt A0A2U9PFG6)
T1 construct: pET-28a His-tag (tag removal not mentioned), E. coli BL21(DE3), BamHI/HindIII
T1 sequence (A0A2U9PFG6 1-239): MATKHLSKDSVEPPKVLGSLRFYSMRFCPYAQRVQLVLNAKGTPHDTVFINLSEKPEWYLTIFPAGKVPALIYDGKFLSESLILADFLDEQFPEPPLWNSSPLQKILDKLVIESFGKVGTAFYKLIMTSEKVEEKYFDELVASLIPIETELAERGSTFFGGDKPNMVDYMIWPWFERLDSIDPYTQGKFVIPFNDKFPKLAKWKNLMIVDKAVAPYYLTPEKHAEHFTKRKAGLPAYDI
Experiment: spectrophotometric GSH conjugation at […] nm, double reciprocal plot
Assay type: biochemical
Settings: 5 mM GSH; 0.02-0.14 mM CDNB; pH 7.0, 0.1 M sodium phosphate

For `O=[N+]([O-])c1ccc(Cl)c([N+](=O)[O-])c1` [CDNB, 1-chloro-2,4-dinitrobenzene], the Km was 120 µM.
